Measurements published in patent publication US20050203187A1, “Formulations useful for the treatment of varicella zoster virus infections and methods for the use thereof” (priority 1998, published 2005).
Converted amounts (≈) assume the structure as drawn. “Also recorded” adds a separate entry of the source. Where two headings read alike, the source gives them in different places.

Legend:
[1] = Topical relief of muscle and joint pain in persons; assay type: in vivo, human; conditions: ibuprofen 5%, ketoprofen 3% (2-5%) in jojoba alcohol with 1% alpha-d-tocopherol, several drops
Experimental: Some persons using these medications experience gastrointestinal side effects.
(§1) The oil was tested on several persons for relief of minor muscle and joint pains.
(§2) The oil was tested topically on several persons for relief of minor muscle and joint pains.

Varicella Zoster Virus [2] = assay: Varicella zoster virus replication in cultures of human foreskin fibroblast cells; assay type: cell-based; conditions: for EC50: Human alphaherpesvirus 3, read-out: EC50 effective concentration required to inhibit viral replication by 50%; for EC50 / EC90: VZV in HFF cells; for EC90: Human alphaherpesvirus 3, read-out: EC90 effective concentration required to inhibit viral replication by 90%; for replication of varicella zoster virus in human cell cultures: statement in words
Experimental: (§3) Human foreskin fibroblast (HFF) cells obtained from newborns were prepared and suspended in minimum essential medium (MEM) and supplemented with 10% fetal bovine serum (FBS). […] Drug concentrations were diluted six times from 100 μg/ml down to 0.03 μg/ml in MEM/FBS solution. A selective index of 10 is considered significant.

Varicella zoster virus [3] = assay: as above; assay type: cell-based; conditions: human; VZV in HFF cells; read-out: SI selective index of CC50/EC50
Experimental: as §3

herpes simplex virus-1 = conditions: rabbit kidney cell cultures; cited from earlier work
[4] = Cytotoxicity in human foreskin fibroblast cells; assay type: cell-based
Experimental: Human foreskin fibroblast (HFF) cells obtained from newborns were prepared and suspended in minimum essential medium (MEM) and supplemented with 10% fetal bovine serum (FBS). Freshly processed cells were incubated for 24 hours at 37° C. in well tissue culture plates in a CO2 incubator (E. R. Kern, J. Infect. Dis., 128:290 (1973)). Assays for cytotoxicity and varicella zoster virus replication were carried out in these culture wells following reported procedures (see, for example, R. J. Ryback and E. R. Kern et al, Antimicrobial Agents and Chemotherapy, 44:1506 (2000); Y. L. Qiu et al, J. Med. Chem., 41: 10 (1998); and Y. L. Qiu et al, J. Med. Chem., 41: 5257 (1998)). Drug concentrations were diluted six times from 100 μg/ml down to 0.03 μg/ml in MEM/FBS solution. A selective index of 10 is considered significant.

varicella zoster virus [5] = assay: Shingles episode in a person; conditions: oral 400 mg 2×/day
[6] = tested on: simian immunodeficiency virus (SIV); conditions: 12% cream, intravaginal application before exposure, six monkeys tested; cited from earlier work
herpes labialis (HSV-1) = conditions: 10% suspended in aqueous system with non-ionic surfactant and carrier; cited from earlier work
herpes and other viruses = conditions: cited from earlier work
[7] = ibuprofen 5%, ketoprofen 3%, lactic acid 5%, testosterone 1% in jojoba alcohol; malic acid 0.8%, citric acid 0.5% lotion; Viracol A Plus one drop
Experimental: Testosterone is a primary male hormone produced in the testes with effects on muscles, bones and sexual function. Testosterone replacement therapy for men with a deficiency, sometimes referred to as hypoganadism, is currently available in topical patches. […] This transdermal delivery technology can also be applied to corresponding estrogenic steroids such as estradiol for women.
as §1, §2
Malic Acid also known as hydroxysuccinic acid, occurs naturally in apples and is sometimes referred to as apple acid. It is used as a general purpose acidulent in food products.
For the next 8 days […] spread 1-2 drops twice each day on the 2.5 inch diameter outbreak of small blisters on […] arm, and 4-6 drops twice each day on the blisters at […] waist.

## CC(C)Cc1ccc(C(C)C(=O)O)cc1 (stereo not drawn) [Ibuprofen, alpha-methyl-4(2-methylpropyl)benzeneacetic acid]
[1]
  pain relief on topical application: successfully relieved pain; also recorded: relieving pain

## O=C(O)CC(=O)O [Malonic acid, propanedioic acid]
Varicella Zoster Virus [2]
  EC50: < 0.03 µg/mL
  EC90: < 0.03 µg/mL
  replication of varicella zoster virus in human cell cultures: inhibit replication
Varicella zoster virus [3]
  selectivity ratio: > 3330
Herpes simplex virus-1
  herpes simplex virus-1 replication: inhibitors
[4]
  CC50: > 100 µg/mL

## Nc1nc2c(ncn2COCCO)c(=O)[nH]1 [Acyclovir, reference compound]
Varicella Zoster Virus [2]
  EC50: 0.04 µg/mL (≈ 0.178 µM)
  EC90: 0.09 µg/mL (≈ 0.4 µM)
Varicella zoster virus [5]
  side effects: diarrhea and headache
Varicella zoster virus [5]; after several days
  change in shingles: no change
[4]; stationary HFF cells
  CC50: > 100 µg/mL

## CCCCCCCCCCCCCCCCCCCCCCO [n-docosanol, n-Docosanol]
[6]
  monkeys in which transmission was prevented: five
Herpes labialis (HSV-1)
  mean healing time of lesions: shortened

## O=C(O)CCC(=O)O [Succinic acid, Succinic Acid]
Herpes and other viruses
  viral replication inhibition activity in cell cultures: viral replication inhibition activity

## O=C(O)CO [Glycolic Acid]
Herpes and other viruses
  viral replication inhibition activity in cell cultures: viral replication inhibition activity

## CC(O)C(=O)O (stereo not drawn) [Lactic Acid]
Herpes and other viruses
  viral replication inhibition activity in cell cultures: viral replication inhibition activity

## O=C(O)CC(O)(CC(=O)O)C(=O)O [Citric Acid]
Herpes and other viruses
  viral replication inhibition activity in cell cultures: viral replication inhibition activity

## CC(C(=O)O)c1cccc(C(=O)c2ccccc2)c1 (stereo not drawn) [Ketoprofen, 3-benzoyl-alpha-methylbenzeneacetic acid]
[1]
  pain relief on topical application: relieving pain
[1]; listed as ketoprofen
  pain relief on topical application: successfully relieved pain

## O=C(O)/C=C/C(=O)O [Fumaric acid, trans 2-butenedioic acid]
Varicella Zoster Virus [2]
  EC50: 0.15 µg/mL (≈ 1.29 µM)
  EC90: 0.6 µg/mL (≈ 5.17 µM)
  replication of varicella zoster virus in human cell cultures: inhibit replication
Varicella zoster virus [3]
  selectivity ratio: > 666
Herpes and other viruses
  viral replication inhibition activity in cell cultures: viral replication inhibition
Herpes simplex virus-1
  herpes simplex virus-1 replication: inhibitors
[4]
  CC50: > 100 µg/mL

## CC(=O)C(=O)O [Pyruvic acid, Pyruvic Acid]
Herpes and other viruses
  viral replication inhibition activity in cell cultures: viral replication inhibition activity

## O=C(O)CC(O)C(=O)O (stereo not drawn) [Malic Acid, hydroxysuccinic acid]
Herpes and other viruses
  viral replication inhibition activity in cell cultures: viral replication inhibition activity

## C[C@]12CC[C@H]3[C@@H](CCC4=CC(=O)CC[C@@]43C)[C@@H]1CC[C@@H]2O [testosterone, Testosterone]
[7]
  absorption into human skin, residue, irritation: leaves no residue
